Laboratory results as given in US20260115185A1, “QUINOLINE DERIVATIVES WHICH ACT AS KAPPA-OPIOID RECEPTOR ANTAGONISTS” (The Scripps Research Institute, priority 2023, published 2026).

Legend:
mu opioid receptor (MOR) = target: T1, mu opioid receptor (MOR) (Homo sapiens, UniProt P35372); assay: OPRMu1 Discover X β-arrestin Assay, antagonist mode (U2OS cells, DAMGO EC80 challenge); format: cell-based
T1 construct: host or cells: U2OS (Discover X OPRMu1-U2OS, PathHunter)
Method in brief: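 PathHunter U2OS cells with β-gal fragment-complementation readout for β-arrestin recruitment to OPRMu1. Cells were preincubated with compound (10-point, 1:3 series from nominal 10 micromolar) for 30 min at 37 °C, then challenged with 303 nM DAMGO (EC80) for 3 h. Luminescence gave percent inhibition.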

[1] = target: T2, kappa opioid receptor (KOR) (Homo sapiens, UniProt P41145); assay: OPRKappa 1 Tango B-Arrestin Assay, antagonist mode (Tango OPRK1-bla U2OS cells, U50488 EC80 challenge); format: cell-based; details: for Selectivity (MOR/KOR): Kappa selectivity, MOR IC50 / KOR IC50; for IC50: antagonist mode, Tango OPRK1-bla U2OS cells, 6 nM U50488 challenge
T2 construct: host or cells: U2OS (Tango OPRK1-bla U2OS)
T2 sequence (P41145 whole entry): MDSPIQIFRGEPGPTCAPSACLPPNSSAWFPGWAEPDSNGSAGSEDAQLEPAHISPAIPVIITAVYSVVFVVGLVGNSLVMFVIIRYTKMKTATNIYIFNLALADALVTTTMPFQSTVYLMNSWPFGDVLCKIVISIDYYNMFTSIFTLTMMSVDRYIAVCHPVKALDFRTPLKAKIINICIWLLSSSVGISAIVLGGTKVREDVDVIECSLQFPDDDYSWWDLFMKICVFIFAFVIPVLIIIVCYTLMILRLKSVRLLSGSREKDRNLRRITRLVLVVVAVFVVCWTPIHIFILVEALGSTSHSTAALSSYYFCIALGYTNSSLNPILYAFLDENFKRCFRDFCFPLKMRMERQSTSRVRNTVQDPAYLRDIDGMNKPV
Method in brief: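 Tango OPRK1-bla U2OS cells, β-arrestin recruitment read as β-lactamase FRET (CCF4-AM, 460/590 nm emission). Compounds, 10-point 1:3 series from nominal 10 µM in quadruplicate, preincubated 30 min at 37 °C, then challenged with U50488 at 6 nM final (EC80) for 4 h; percent inhibition from median ratio.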

T1 sequence (P35372 whole entry): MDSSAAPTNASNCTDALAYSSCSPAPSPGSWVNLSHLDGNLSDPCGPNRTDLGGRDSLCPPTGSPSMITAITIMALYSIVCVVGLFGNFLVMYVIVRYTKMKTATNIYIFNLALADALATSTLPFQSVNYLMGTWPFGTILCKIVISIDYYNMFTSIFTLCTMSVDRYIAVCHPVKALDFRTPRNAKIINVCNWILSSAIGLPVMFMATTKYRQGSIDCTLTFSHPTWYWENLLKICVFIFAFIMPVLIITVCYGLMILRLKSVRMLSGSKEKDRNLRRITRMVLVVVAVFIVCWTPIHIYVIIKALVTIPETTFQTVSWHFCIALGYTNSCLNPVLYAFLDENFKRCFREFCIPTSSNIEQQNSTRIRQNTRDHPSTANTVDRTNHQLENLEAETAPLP

SMILES | IC50 (mu opioid receptor (MOR)) | IC50 [1] | Selectivity (MOR/KOR) [1]
CCc1cc(F)c2nc(N3CC[C@@H](NC[C@@H]4CCOC4)[C@@H](F)C3)c(-c3ccn(C)n3)c(C)c2c1 [Compound 204] | 100 to 1000 nM | < 1 nM | ++++ (more than 1000-fold selectivity over MOR)
CCc1cc(F)c2nc(N3CCN(C(=O)[C@@H](C)N(CC)CC)C[C@H]3C)c(-c3ccn(C)n3)c(C)c2c1 [Compound 170] | > 1000 nM | 10 to 100 nM | +++ (between 100- to 1000-fold selective)
CCc1cc(-c2ccnn2C)c2nc(N3CCN(CC4CC(F)(F)C4)C[C@H]3C)c(-c3ccn(C)n3)c(C)c2c1 [Compound 61] | > 1000 nM | ≥ 100 nM | ++ (between 10- and 100-fold selectivity)
CCc1cc(F)c2nc(N3CC[C@@H](N[C@@H]4CCOC4)[C@H](C)C3)c(-c3ccn(C)n3)c(C)c2c1 [Compound 110] | > 1000 nM | 1 to 10 nM | +++ (between 100- to 1000-fold selective)
CCc1cc(F)c2nc(N3CC[C@@H]4[C@@H](CCN4[C@@H]4CCOC4)C3)c(-c3ccn(C)n3)c(C)c2c1 [Compound 123] | > 1000 nM | 10 to 100 nM | +++ (between 100- to 1000-fold selective)
CCc1cc(-c2cc(C)nn2C)c2nc(N3CCC(N[C@H]4CCOC4)CC3)c(-c3ccn(C)n3)c(C)c2c1 [Compound 94] | 10 to 100 nM | < 1 nM | +++ (between 100- to 1000-fold selective)
CCc1cc(F)c2nc(N3CCN(C(=O)[C@@H]4C[C@@H](O)CN4C)C[C@H]3C)c(-c3ccn(C)n3)c(C)c2c1 [Compound 177] | > 1000 nM | ≥ 100 nM | +++ (between 100- to 1000-fold selective)
CCc1cc(F)c2nc(N3CC[C@H]4[C@H](CCN4[C@@H]4CCCOC4)C3)c(-c3ccn(C)n3)c(C)c2c1 [Compound 126] | > 1000 nM | 10 to 100 nM | ++ (between 10- and 100-fold selectivity)
CCc1cc(-c2cc(C)nn2C)c2nc(N3CC[C@H](NC4CCOCC4)[C@H](F)C3)c(-c3ccn(C)n3)c(C)c2c1 [Compound 96] | > 1000 nM | 1 to 10 nM | +++ (between 100- to 1000-fold selective)
CCc1cc(C#N)c2nc(N3CCC(NCC4(F)CCOCC4)CC3)c(-c3ccn(C)n3)c(C)c2c1 [Compound 80] | 100 to 1000 nM | 1 to 10 nM | ++ (between 10- and 100-fold selectivity)
CCc1cc(F)c2nc(N3CCC(N[C@H]4COC[C@H]4F)CC3)c(-c3ccn(C)n3)c(C)c2c1 [Compound 72, 1-(6-ethyl-8-fluoro-4-methyl-3-(1-methyl-1H-pyrazol-3-yl)quinolin-2-yl)-N-((3S,4S)-4-fluorotetrahydrofuran-3-yl)piperidin-4-amine] | > 1000 nM | 10 to 100 nM | ++ (between 10- and 100-fold selectivity)
CCc1cc(C#N)c2nc(N3CCC(N4CCOC[C@@H]4C)CC3)c(-c3ccn(C)n3)c(C)c2c1 [Compound 81] | > 1000 nM | 10 to 100 nM | ++ (between 10- and 100-fold selectivity)
CCc1cc(F)c2nc(N3CC[C@H](NC4CCOCC4)[C@H](F)C3)c(-c3ccn(C)n3)c(C)c2c1F [Compound 69] | > 1000 nM | 10 to 100 nM | +++ (between 100- to 1000-fold selective)
CCc1cc(-c2ccnn2C)c2nc(N3CCC(N[C@@H]4CCOC4)CC3)c(-c3ccn(C)n3)c(C)c2c1 [Compound 87] | 100 to 1000 nM | < 1 nM | +++ (between 100- to 1000-fold selective)
CCc1cc(F)c2nc(N3CCN(C(=O)[C@H](C)N(CC)CC)C[C@H]3C)c(-c3ccn(C)n3)c(C)c2c1 [Compound 174] | > 1000 nM | 10 to 100 nM | +++ (between 100- to 1000-fold selective)
CCc1cc(F)c2nc(N3CC[C@@H]4[C@@H](CCN4C[C@@H]4CCCOC4)C3)c(-c3ccn(C)n3)c(C)c2c1 [Compound 128] | > 1000 nM | ≥ 100 nM | ++ (between 10- and 100-fold selectivity)
CCc1cc(F)c2nc(N3CCC(NCC4(F)CC4)CC3)c(-c3cc(C)n(C)n3)c(C)c2c1 [Compound 19, 1-(3-(1,5-dimethyl-1H-pyrazol-3-yl)-6-ethyl-8-fluoro-4-methylquinolin-2-yl)-N-((1-fluorocyclopropyl)methyl)piperidin-4-amine] | 100 to 1000 nM | 1 to 10 nM | +++ (between 100- to 1000-fold selective)
CCc1cc(F)c2nc(N3CC[C@@H](N[C@@H]4CCCOC4)[C@H](C)C3)c(-c3ccn(C)n3)c(C)c2c1 [Compound 114] | 100 to 1000 nM | 1 to 10 nM | ++ (between 10- and 100-fold selectivity)
CCc1cc(F)c2nc(N3CCN(C(=O)[C@H](CO)N(C)C)C[C@H]3C)c(-c3ccn(C)n3)c(C)c2c1 [Compound 178] | > 1000 nM | 10 to 100 nM | +++ (between 100- to 1000-fold selective)
CCc1cc(C#N)c2nc(N3CCC(N4CCOC[C@H]4C)CC3)c(-c3ccn(C)n3)c(C)c2c1 [Compound 82] | > 1000 nM | 10 to 100 nM | ++ (between 10- and 100-fold selectivity)
CCc1cc(F)c2nc(N3CC[C@@H]4[C@@H](CCN4C[C@@H]4CCOC4)C3)c(-c3ccn(C)n3)c(C)c2c1 (stereo in doubt) [Compound 127] | > 1000 nM | ≥ 100 nM | +++ (between 100- to 1000-fold selective)

Second part, led by results:

IC50 (mu opioid receptor (MOR)) | IC50 [1] | SMILES | Selectivity (MOR/KOR) [1]
100 to 1000 nM | < 1 nM | CCc1cc(F)c2nc(N3CC[C@@H](N[C@@H]4CCCOC4)C[C@H]3C)c(-c3ccn(C)n3)c(C)c2c1 [Compound 119] | ++++ (more than 1000-fold selectivity over MOR)
> 1000 nM | < 1 nM | CCc1cc(-c2ccn(C)n2)c2nc(N3CCC(N[C@H]4CCOC[C@@H]4F)CC3)c(-c3nc(C)no3)c(C)c2c1 [Compound 102] | ++++ (more than 1000-fold selectivity over MOR)
> 1000 nM | 10 to 100 nM | CCc1cc(F)c2nc(N3CCN(/C(=N/C#N)NC)C[C@H]3C)c(-c3nc(C)no3)c(C)c2c1 [Compound 55] | ++ (between 10- and 100-fold selectivity)
> 1000 nM | 10 to 100 nM | CCc1cc(F)c2nc(N3CCN(C[C@@H]4CCCO4)C[C@H]3CC)c(-c3nc(C)no3)c(C)c2c1 [Compound 35] | ++ (between 10- and 100-fold selectivity)
> 1000 nM | 1 to 10 nM | CCc1cc(F)c2nc(N3CCN(C4CCOCC4)C[C@@H]3C)c(-c3nc(C)no3)c(C)c2c1 (single isomer, unassigned) [Compound 28] | ++++ (more than 1000-fold selectivity over MOR)
100 to 1000 nM | < 1 nM | CCc1cc(F)c2nc(N3CC[C@@H](N[C@@H]4CCOC4)C[C@H]3C)c(-c3cc(C)no3)c(C)c2c1 [Compound 137] | ++++ (more than 1000-fold selectivity over MOR)
> 1000 nM | 10 to 100 nM | CCc1cc(F)c2nc(N3CCN(C(=O)[C@@H]4CCCN4C)C[C@H]3C)c(-c3ccn(C)n3)c(C)c2c1 [Compound 175] | +++ (between 100- to 1000-fold selective)
> 1000 nM | 1 to 10 nM | CCc1cc(F)c2nc(N3CCN(C(=O)[C@H]4CC(F)(F)CCN4C)C[C@H]3C)c(-c3nc(C)no3)c(C)c2c1 [Compound 205, ((R)-4,4-difluoro-1-methylpiperidin-2-yl)((R)-4-(6-ethyl-8-fluoro-4-methyl-3-(3-methyl-1,2,4-oxadiazol-5-yl)quinolin-2-yl)-3-methylpiperazin-1-yl)methanone] | +++ (between 100- to 1000-fold selective)
> 1000 nM | 10 to 100 nM | CCc1cc(-c2cc[nH]n2)c2nc(N3CCNC[C@H]3C)c(-c3nc(C)no3)c(C)c2c1 [Compound 105] | ++ (between 10- and 100-fold selectivity)
> 1000 nM | 10 to 100 nM | CCc1cc(F)c2nc(N3CCN(C(C)C4CCOCC4)C[C@H]3C)c(-c3nc(C)no3)c(C)c2c1 (stereo partly drawn) [Compound 199, 5-(6-ethyl-8-fluoro-4-methyl-2-((2R)-2-methyl-4-(1-(tetrahydro-2H-pyran-4-yl)ethyl)piperazin-1-yl)quinolin-3-yl)-3-methyl-1,2,4-oxadiazole] | ++++ (more than 1000-fold selectivity over MOR)
> 1000 nM | 10 to 100 nM | CCc1cc(F)c2nc(N3CCN(C(=O)[C@H]4COCCN4C)C[C@H]3C)c(-c3nc(C)no3)c(C)c2c1 [Compound 184] | +++ (between 100- to 1000-fold selective)
100 to 1000 nM | < 1 nM | CCc1cc(F)c2nc(N3[C@H](C)CN(C(=O)CN4CCCC4)C[C@H]3C)c(-c3nc(C)no3)c(C)c2c1 [Compound 161] | +++ (between 100- to 1000-fold selective)
> 1000 nM | 10 to 100 nM | CCc1cc(F)c2nc(N3CCN(CC4CCOCC4)[C@@H](C)C3)c(-c3nc(C)no3)c(C)c2c1 [Compound 38, (S)-5-(6-ethyl-8-fluoro-4-methyl-2-(3-methyl-4-((tetrahydro-2H-pyran-4-yl)methyl)piperazin-1-yl)quinolin-3-yl)-3-methyl-1,2,4-oxadiazole] | ++ (between 10- and 100-fold selectivity)
